The values below come from patent publication US6964983B2, “Compounds that modulate PPAR activity and methods for their preparation” (Warner-Lambert Company, LLC, priority 2002, dated 2005).

In data set [1] the target is T1, hPPARβ (Homo sapiens, UniProt Q03181).
T1 sequence (Q03181 171-441 limits assumed): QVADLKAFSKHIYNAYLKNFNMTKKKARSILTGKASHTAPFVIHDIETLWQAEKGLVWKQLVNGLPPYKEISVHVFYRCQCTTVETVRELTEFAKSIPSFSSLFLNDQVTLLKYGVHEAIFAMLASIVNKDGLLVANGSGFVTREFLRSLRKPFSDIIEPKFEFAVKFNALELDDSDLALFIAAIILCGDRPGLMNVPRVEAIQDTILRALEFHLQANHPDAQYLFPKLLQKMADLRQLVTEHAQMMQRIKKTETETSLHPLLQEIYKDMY
Put plainly: Transient transfection assay in HepG2 cells, Gal4-hPPARβ chimeric receptor, luciferase reporter. Type of data set: cell-based. Particulars: Hep G2-hBeta EC50, 24 hours incubation; read-out: EC50β nM (Group). The gist of the method: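 HepG2 cells were transiently co-transfected with Gal4-hPPARα or Gal4-hPPARβ chimeras, a UAS-E1B luciferase reporter and a β-gal normalisation plasmid. After re-plating, cells were treated with compound at 50 pM–50 μM for 24 h at 37°C. EC50 values were derived from luciferase read-out normalised to β-gal.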
On the technique in general: Reporter assays use an easily measured gene product as a stand-in for the process of interest.

The target in data set [2] is T2, hPPARα (Homo sapiens, UniProt Q07869).
T2 sequence (Q07869 200-468 limits assumed): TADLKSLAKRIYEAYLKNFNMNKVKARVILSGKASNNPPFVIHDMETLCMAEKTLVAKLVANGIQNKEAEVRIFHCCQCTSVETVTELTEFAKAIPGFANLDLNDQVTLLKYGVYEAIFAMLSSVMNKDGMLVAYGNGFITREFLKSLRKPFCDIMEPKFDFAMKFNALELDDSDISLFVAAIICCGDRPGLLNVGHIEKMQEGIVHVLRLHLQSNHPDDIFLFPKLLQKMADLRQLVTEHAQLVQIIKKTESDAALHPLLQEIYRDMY
Put plainly: Transient transfection assay in HepG2 cells, Gal4-hPPARα chimeric receptor, luciferase reporter. The following applies: Hep G2-hAlpha EC50, 24 hours incubation; read-out: EC50α nM (Group). Type of data set: cell-based. As for the experimental part:
1. Test A. Transient Transfections Assay using the HepG2 Hepatoma Cell Line.
HepG2 cells were transiently transfected with an expression plasmids encoding hPPARα, hPPARβ or mPPARγ chimeric receptors and a reporter containing the yeast upstream activating sequence (UAS) upstream of the viral E1B promoter controlling a luciferase reporter gene. In addition, the plasmid pRSVβ-gal was used to control for transfection efficiency. HepG2 cells were grown in DMEM supplemented with 10% FBS and 1 μM non-essential amino acid. On the first day, cells were split into 100 mm dishes at 2.5×10^6/dish and incubated overnight at 37° C./5% CO2. On the second day the cells were transiently transfected with plasmid DNA encoding a chimeric receptor, the luciferase reporter gene; and β-gal. For each 100 mm dish, 15 μg of lucifease reporter (PG5E1b) DNA, 15 μg of Gal4-PPAR chimeric receptor DNA, and 1.5 μg of β-gal plasmid DNA were mixed with 1.4 ml of opti-MEM in the tube. 28 μl of LipoFectamine-2000 reagent was added to 1.4 ml of opti-MEM in the tube, and incubate for 5 min at RT. The diluted Lipofectamine-2000 reagent was combined with the DNA mixture, and incubate for 20 min at RT. After fresh medium was added to each 100 mm dish of cells, 2.8 ml of Lipofectamine2000-DNA mixture was added dropwise to the 100 mm dish containing 14 ml of medium, and incubate 37° C. overnight. On day three cells were trypsinized off the 100 mm dishes and re-plated on 96 well plates. Cells were plated at 2.5×10^4 cells per well in 150 μl of media and 50 μl of compound diluted by media was added. The test compound added were in the range from 50 μM to 50 pM. After addition of compounds, the plates were incubated at 37° C. for 24 hours. Subsequently cells were washed with once with 100 μl of PBS, lysed, and processed for measuring luciferase and β-gal activity using Dual-Light luciferase kit from Tropix ®, according to the manufacturer's recommendations, on an EG&G Bethold MicroLumat LB96P luminometer. EC50 values were obtained using the GraphPad Prism™ program.

Regarding `COc1cc(OCC(=O)O)c(C)cc1SCc1ccc(-c2ccccc2)cc1` [Example 1, [4-(Biphenyl-4-ylmethylsulfanyl)-5-methoxy-2-methyl-phenoxy]-acetic acid], the melting point – broadly, the temperature of the solid-liquid transition – is 60 to 62 °C. For the same compound, the EC50 in data set [1] was below 300 nM. Further, the EC50 in data set [2] was below 300 nM.

`Cc1cc(SCc2ccc(OCc3ccc(F)cc3)cc2)ccc1OCC(=O)O` [Example 57, {4-[4-(4-Fluoro-benzyloxy)-benzylsulfanyl]-2-methyl-phenoxy}-acetic acid] gave a melting point of 154 to 155 °C. In addition, the EC50 in data set [1] lay within 2000 to 5000 nM. For the same compound, the EC50 in data set [2] was 1000 to 2000 nM.

Take `COc1cc(OCC(=O)O)c(C)cc1SCc1ccc(/C=C/c2cccc(F)c2)cc1` [Example 29, (4-{4-[2-(3-Fluoro-phenyl)-vinyl]-benzylsulfanyl}-5-methoxy-2-methyl-phenoxy)-acetic acid]: the melting point was 154 °C (dec.). In addition, the EC50 in data set [1] is below 300 nM. In addition, the EC50 in data set [2] was below 300 nM.

Regarding `Cc1cc(SCc2ccc(OCc3ccc(OC(F)(F)F)cc3)cc2)ccc1OCC(=O)O` [Example 35, {2-Methyl-4-[4-(4-trifluoromethoxy-benzyloxy)-benzylsulfanyl]-phenoxy}-acetic acid], the melting point was in the range of 141 to 142 °C. Besides, the EC50 in data set [1] is 300 to 500 nM. Besides, the EC50 in data set [2] is below 300 nM.

`Cc1cc(SCc2ccc(OCc3ccc(C(C)(C)C)cc3)cc2)ccc1OCC(=O)O` [Example 34, {4-[4-(4-tert-Butyl-benzyloxy)-benzylsulfanyl]-2-methyl-phenoxy}-acetic acid] returned a melting point of 135 to 137 °C. The EC50 in data set [1] was below 300 nM. Moreover, in data set [2], the EC50 was below 300 nM.

`Cc1cc(SCc2ccc(OCc3ccc(Cl)cc3Cl)cc2)ccc1OCC(=O)O` [Example 32, {4-[4-(2,4-Dichloro-benzyloxy)-benzylsulfanyl]-2-methyl-phenoxy}-acetic acid] displayed a melting point of 143 to 145 °C. The EC50 in data set [1] was in the range of 300 to 500 nM. The EC50 in data set [2] is 1000 to 2000 nM.

As to `O=C(O)COc1ccc(SCc2cccc(OCc3ccc(C(F)(F)F)cc3)c2)c2c1CCC2` [Example 79, {7-[3-(4-Trifluoromethyl-benzyloxy)-benzylsulfanyl]-indan-4-yloxy}-acetic acid], the melting point was in the range of 145 to 146 °C. The EC50 in data set [1] lay in the range of 300 to 500 nM. Besides, in data set [2], the EC50 is above 5000 nM.

Turning to `O=C(O)COc1ccc(SCc2ccc(OCc3ccc(Cl)cc3Cl)cc2)c2c1CCC2` [Example 62, {7-[4-(2,4-Dichloro-benzyloxy)-benzylsulfanyl]-indan-4-yloxy}-acetic acid], the melting point is 149 to 150 °C. Also, the EC50 in data set [1] lay in the range of 1000 to 2000 nM. In data set [2], the EC50 is above 5000 nM.

In turn, `O=C(O)COc1ccc(SCc2ccc(OCc3ccc(Cl)c(C(F)(F)F)c3)cc2)c2c1CCC2` [Example 73, {7-[4-(4-Chloro-3-trifluoromethyl-benzyloxy)-benzylsulfanyl]-indan-4-yloxy}-acetic acid] had a melting point of 151 to 152 °C. Moreover, the EC50 in data set [1] is below 300 nM. In data set [2], the EC50 fell in the range of 2000 to 5000 nM.

Compound `O=C(O)COc1ccc(SCc2ccc(OCc3ccc(F)c(C(F)(F)F)c3)cc2)c2c1CCC2` [Example 74, {7-[4-(4-Fluoro-3-trifluoromethyl-benzyloxy)-benzylsulfanyl]-indan-4-yloxy}-acetic acid] gave a melting point of 116 to 117 °C. For the same compound, in data set [1], the EC50 is below 300 nM. Besides, the EC50 in data set [2] fell in the range of 2000 to 5000 nM.

The compound `Cc1cc(CCc2ccc(-c3ccc(C(F)(F)F)cc3)cc2)ccc1OCC(=O)O` [Example 25, {2-Methyl-4-[2-(4′-trifluoromethyl-biphenyl-4-yl)-ethyl]-phenoxy}-acetic acid] had a melting point of 174 to 176 °C. Moreover, the EC50 in data set [1] lay in the range of 2000 to 5000 nM. In data set [2], the EC50 was in the range of 1000 to 2000 nM.

Consider `COc1cc(OCC(=O)O)c(C)cc1SCCc1ccc(-c2ccc(C(F)(F)F)cc2)cc1` [Example 23, {5-Methoxy-2-methyl-4-[2-(4′-trifluoromethyl-biphenyl-4-yl)-ethylsulfanyl]-phenoxy}-acetic acid], for which the melting point fell in the range of 169 to 171 °C. The EC50 in data set [1] is below 300 nM. Besides, in data set [2], the EC50 is below 300 nM.

The compound `Cc1cc(SCc2ccc(OCc3ccc(F)cc3F)cc2)ccc1OCC(=O)O` [Example 31, {4-[4-(2,4-Difluoro-benzyloxy)-benzylsulfanyl]-2-methyl-phenoxy}-acetic acid] registered a melting point of 139 to 141 °C. The EC50 in data set [1] is above 5000 nM. In addition, in data set [2], the EC50 lay within 1000 to 2000 nM.

`COc1cc(OCC(=O)O)c(C)cc1SCc1ccc(-c2cccc(C(F)(F)F)c2)cc1` [Example 9, [5-Methoxy-2-methyl-4-(3′-trifluoromethyl-biphenyl-4-ylmethylsulfanyl)-phenoxy]-acetic acid] showed a melting point of 138 to 139 °C. Further, in data set [1], the EC50 is below 300 nM. The EC50 in data set [2] is below 300 nM.

Consider `Cc1cc(SCc2ccc(-c3ccc(C(F)(F)F)cc3)cc2)c(Cl)cc1OCC(=O)O` [Example 20, [5-Chloro-2-methyl-4-(4′-trifluoromethyl-biphenyl-4-ylmethylsulfanyl)-phenoxy]-acetic acid], for which the melting point lay in the range of 161 to 162 °C. The EC50 in data set [1] is below 300 nM. The EC50 in data set [2] was in the range of 2000 to 5000 nM.
